Experiment [1] addresses Sec61α in U87-MG glioblastoma cells (Homo sapiens, UniProt P61619). As to the kind of experiment: Cellular thermal shift assay. Format: cell-based. As to conditions: intact U87-MG cells.
The subject of a further experiment is HCT116 cells. Briefly: Cell viability, Alamar Blue assay. Format: cell-based, human. As to conditions: HCT116, 72 h, 0.1% DMSO (Figure 1D), read-out: IC50. As for the experimental part: Figure 1 Cytotoxicity of synthetic and Pra-containing coibamides. (A) Structure of CbA. (B) Human MDA-MB-231 breast cancer cells were treated with increasing concentrations of synthetic CbA or vehicle (0.1% DMSO) and cell viability assessed at 72 h by an MTS end-point assay. (C) Structure of Photo-CbA. (D) Human HCT116 cells were treated with increasing concentrations of synthetic or photo-CbA in 0.1% DMSO, and cell viability assessed at 72 h by Alamar Blue assay. TEXT PRINTED IN THE PICTURE: (B) CbA: MDA-MB-231 cell line: IC50(nM): 1.6 | (D) CbA: HCT 116 cell line: IC50(nM): 29.2 | (D) Photo-CbA: HCT 116 cell line: IC50(nM): 6.5
Figure 5 CbA mode of inhibition is specific compared to known Sec61 inhibitors. (A) Cell viability was measured by Alamar Blue assay (mean ± SD, n = 4, all cell lines assayed simultaneously) for HCT-116 cell lines isolated on the basis of CbA resistance in the presence of concentration series of indicated compounds. (B) Cell viability was measured by Alamar Blue assay (mean ± SD, n = 4, all cell lines assayed simultaneously) for HEK293FRT cells stably expressing Sec61α mutants in the presence of concentration series of indicated compounds. (C) Comparison of published NCI60 data for CbA,[3] AprA,[11] and IpoF.[33] The heat map was derived by plotting each GI50 value divided by the median GI50 for that compound. X indicates a cell line that was not tested. Closed arrowhead indicates cell lines with most notable differences across the three compounds. […]
A431, HEK293T, and HEK293FRT cells were cultured in DMEM supplemented with 10% FBS. […] Viability was estimated by the addition of Alamar Blue (Life Technologies) and measuring fluorescence after a further 4 h. […]
On the technique in general: Resazurin is reduced to fluorescent resorufin, in cell work by metabolically active cells.

Experiment [2] has as its system A549 human lung adenocarcinoma cells. The following applies: 72 h.

What is called IC50 is the concentration that inhibits the measured activity by half.

Bridge positions count the residues as written; N and C are the ends. Square brackets hold non-standard residues; d marks the D form. Peptide text beside a SMILES is read from it. * marks the point of attachment. Phe(4-CF3-diazirinyl) = N[C@@H](Cc1ccc(C2(C(F)(F)F)N=N2)cc1)C(=O)O; NMe2Val = CC(C)[C@@H](C(=O)*)N(C)C; NMeI = CC[C@H](C)[C@H](NC)C(=O)O; NMeT = CN[C@H](C(=O)O)[C@@H](C)O; NMeL = CN[C@@H](CC(C)C)C(=O)O; NMePra = C#CC[C@H](NC)C(=O)O; dHiv = CC(C)[C@@H](O)C(=O)O; NMeS = CN[C@@H](CO)C(=O)O; Pra = C#CC[C@H](N)C(=O)O; dNMeA = CN[C@H](C)C(=O)O

Sec61α in U87-MG glioblastoma cells, sequence (P61619 whole entry): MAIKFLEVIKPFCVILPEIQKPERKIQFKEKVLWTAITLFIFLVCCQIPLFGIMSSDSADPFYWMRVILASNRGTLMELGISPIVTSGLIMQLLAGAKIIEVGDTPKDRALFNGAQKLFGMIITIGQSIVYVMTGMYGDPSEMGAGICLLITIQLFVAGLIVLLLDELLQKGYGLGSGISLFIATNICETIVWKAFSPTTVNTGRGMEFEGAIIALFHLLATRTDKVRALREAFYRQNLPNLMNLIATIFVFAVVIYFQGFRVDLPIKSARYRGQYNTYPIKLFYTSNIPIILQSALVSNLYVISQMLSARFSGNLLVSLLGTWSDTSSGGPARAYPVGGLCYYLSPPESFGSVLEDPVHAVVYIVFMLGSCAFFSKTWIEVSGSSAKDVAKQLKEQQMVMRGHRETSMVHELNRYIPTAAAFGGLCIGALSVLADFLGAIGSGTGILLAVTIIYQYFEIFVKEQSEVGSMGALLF
Sec61α in U87-MG glioblastoma cells, sequence (P60468 2-96 partner limits assumed): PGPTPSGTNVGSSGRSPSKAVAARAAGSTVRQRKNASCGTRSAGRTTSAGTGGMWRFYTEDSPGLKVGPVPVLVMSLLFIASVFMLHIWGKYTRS
Sec61α in U87-MG glioblastoma cells, sequence (P60059 whole entry partner): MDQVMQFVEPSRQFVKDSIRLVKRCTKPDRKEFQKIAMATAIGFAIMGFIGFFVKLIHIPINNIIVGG

Regarding `NCC(=O)Nc1ccc(-n2nc(C(F)(F)F)cc2-c2ccc3c(ccc4ccccc43)c2)cc1` [OSU-03012], in experiment [1] (45 to 72 °C for 3 min, 3 μM OSU-03012, 1 h), the “Sec61α detection at 60–66 °C (melting curve)” value is on record as “relatively weak immunoreactivity”. Further, the “stabilization of Sec61α, isothermal dose–response” value in experiment [1] (51 °C for 3 min, OSU-03012 0.03 nM to 10 μM) is “no apparent stabilization”. As for `C#CC[C@@H](C(=O)N(C)[C@@H](CC(C)C)C(=O)N(C)[C@@H]1C(=O)N(C)[C@@H](COC)C(=O)N(C)[C@@H]([C@@H](C)CC)C(=O)N[C@@H](C)C(=O)N(C)[C@@H](CC(C)C)C(=O)N[C@@H](Cc2ccc(C3(C(F)(F)F)N=N3)cc2)C(=O)N(C)[C@H](C)C(=O)O[C@@H]1C)N(C)C(=O)[C@H](OC(=O)[C@H](C(C)C)N(C)C)C(C)C` [Photo-CbA] (NMe2Val-[dHiv][NMePra][NMeL][NMeT][NMeS](Me)[NMeI]A[NMeL][Phe(4-CF3-diazirinyl)][dNMeA]; ester 4-C), the IC50 with HCT116 cells turned out to be 6.5 nM. In experiment [2], `C#CC[C@@H](C(=O)N(C)[C@@H](CC(C)C)C(=O)N(C)[C@@H]1C(=O)N(C)[C@@H](COC)C(=O)N(C)[C@@H]([C@@H](C)CC)C(=O)N[C@@H](C)C(=O)N(C)[C@@H](CC(C)C)C(=O)N[C@@H](Cc2ccc(OC)cc2)C(=O)N(C)[C@H](C)C(=O)O[C@@H]1C)N(C)C(=O)[C@H](OC(=O)[C@H](C(C)C)N(C)C)C(C)C` [R3 = propargyl] (NMe2Val-[dHiv][NMePra][NMeL][NMeT][NMeS](Me)[NMeI]A[NMeL]Y(Me)[dNMeA]; ester 4-C) came in with an IC50 of 1.7 ± 0.3 nM. With `C#CC[C@@H](C(=O)N(C)[C@@H]1C(=O)N(C)[C@@H](COC)C(=O)N(C)[C@@H]([C@@H](C)CC)C(=O)N[C@@H](C)C(=O)N(C)[C@@H](CC(C)C)C(=O)N[C@@H](Cc2ccc(OC)cc2)C(=O)N(C)[C@H](C)C(=O)O[C@@H]1C)N(C)C(=O)[C@H](COC)N(C)C(=O)[C@H](OC(=O)[C@H](C(C)C)N(C)C)C(C)C` [R4 = propargyl] (NMe2Val-[dHiv][NMeS](Me)[NMePra][NMeT][NMeS](Me)[NMeI]A[NMeL]Y(Me)[dNMeA]; ester 4-C), the IC50 in experiment [2] turned out to be 3.7 ± 0.5 nM.

In turn, `C#CC[C@H]1C(=O)N(C)[C@@H]([C@@H](C)CC)C(=O)N[C@@H](C)C(=O)N(C)[C@@H](CC(C)C)C(=O)N[C@@H](Cc2ccc(OC)cc2)C(=O)N(C)[C@H](C)C(=O)O[C@H](C)[C@H](N(C)C(=O)[C@H](CC(C)C)N(C)C(=O)[C@H](COC)N(C)C(=O)[C@H](OC(=O)[C@H](C(C)C)N(C)C)C(C)C)C(=O)N1C` [R6 = propargyl] (NMe2Val-[dHiv][NMeS](Me)[NMeL][NMeT][NMePra][NMeI]A[NMeL]Y(Me)[dNMeA]; ester 4-C) gave an IC50 in experiment [2] of 2 ± 0.9 nM. On to `C#CC[C@H]1C(=O)N[C@@H](C)C(=O)N(C)[C@@H](CC(C)C)C(=O)N[C@@H](Cc2ccc(OC)cc2)C(=O)N(C)[C@H](C)C(=O)O[C@H](C)[C@H](N(C)C(=O)[C@H](CC(C)C)N(C)C(=O)[C@H](COC)N(C)C(=O)[C@H](OC(=O)[C@H](C(C)C)N(C)C)C(C)C)C(=O)N(C)[C@@H](COC)C(=O)N1C` [R7 = propargyl] (NMe2Val-[dHiv][NMeS](Me)[NMeL][NMeT][NMeS](Me)[NMePra]A[NMeL]Y(Me)[dNMeA]; ester 4-C), for which, in experiment [2], half-maximal inhibition (IC50) required 9.3 ± 3.4 nM.

The molecule `C#CC[C@@H]1NC(=O)[C@H]([C@@H](C)CC)N(C)C(=O)[C@H](COC)N(C)C(=O)[C@@H](N(C)C(=O)[C@H](CC(C)C)N(C)C(=O)[C@H](COC)N(C)C(=O)[C@H](OC(=O)[C@H](C(C)C)N(C)C)C(C)C)[C@@H](C)OC(=O)[C@@H](C)N(C)C(=O)[C@H](Cc2ccc(OC)cc2)NC(=O)[C@H](CC(C)C)N(C)C1=O` [R8 = propargyl] (NMe2Val-[dHiv][NMeS](Me)[NMeL][NMeT][NMeS](Me)[NMeI][Pra][NMeL]Y(Me)[dNMeA]; ester 4-C) came in with an IC50 in experiment [2] of 66 ± 15 nM. In the case of `C#CC[C@H]1C(=O)N[C@@H](Cc2ccc(OC)cc2)C(=O)N(C)[C@H](C)C(=O)O[C@H](C)[C@H](N(C)C(=O)[C@H](CC(C)C)N(C)C(=O)[C@H](COC)N(C)C(=O)[C@H](OC(=O)[C@H](C(C)C)N(C)C)C(C)C)C(=O)N(C)[C@@H](COC)C(=O)N(C)[C@@H]([C@@H](C)CC)C(=O)N[C@@H](C)C(=O)N1C` [R9 = propargyl] (NMe2Val-[dHiv][NMeS](Me)[NMeL][NMeT][NMeS](Me)[NMeI]A[NMePra]Y(Me)[dNMeA]; ester 4-C), the IC50 in experiment [2] came to 19 ± 7.6 nM.

These data come from publication PMC7497630, “Coibamide A Targets Sec61 to Prevent Biogenesis of Secretory and Membrane Proteins” (ACS Chemical Biology, 2020).
